Data taken from patent publication US20160009752A1, “[…]-OXIMINO-AMINOALKYLETHERS AND PROCESS FOR PREPARATION THEREOF, USEFUL AS ANTIDIABETIC AND […] AGENTS” (COUNCIL OF SCIENTIFIC & INDUSTRIAL RESEARCH, priority 2013, published 2016).
Marks after values point to notes of the source that are not given here.

Tests used:
sucrose loaded rat = assay: Sucrose loaded rat model (SLM), oral tolerance test; type: in vivo; parameters: % Antihyperglycemic activity SLM: concentration or dose not given beside the values; settings: Table 2; sucrose loaded rat
From the text: On the day of experiment blood glucose of all the overnight fasted animals was checked by Glucostrips (Roche) using Glucometer (ACCU-CHEK II; Roche Diagnostics, USA). […] Animals were divided into groups consisting of five animals in each. […] The test compounds and standard drug was always prepared in the vehicle 1% gum acacia. […] Food (not water) was removed from the cages during the experimental period. […] Comparing the AUC of test sample or drug treated groups compared to control group determined the percent improvement in OGTT by test sample and standard drugs and termed as antihyperglycaemic activity. Statistical analysis between the groups was done by employing Students t test

[1] = test system: high fructose high fat fed Syrian golden hamsters; assay: Antidyslipidemic activity in high fructose high fat fed Syrian golden hamsters; type: in vivo
Procedure: Male Syrian golden hamsters weighing 100-120 g were divided into groups each containing six animals. Dyslipidemia was produced by feeding the animals with high fructose high fat diet (60% fructose, 13% fat) for 30 to 40 days. Dyslipidemic hamsters were divided into groups based on their Serum lipid profile. The dyslipidemic animals had free access to HFD and water throughout the experimental period. The fine suspension of 14b was fed orally at a dose of 30 mg/kg for 7 days to the animals. Control animals were given drug vehicle only, served as sham treated control. Body weight and diet intake of each animal group were recorded daily to check the effect of the test samples on food intake and body weight of the animals. At the end of the experiment period i.e. on day 8th, the blood of each animal was withdrawn from retro-orbital plexus. After keeping the tubes for 15 min. in cold, Serum was separated. Biochemical analysis of Serum was performed on the same day for triglycerides (TG), total cholesterol (TC) and HDL-cholesterol and LDL-cholesterol contents using Cobas Integra 400 plus analyzer kits. All statistical analysis will be performed with Graph Pad Prism Software. One way ANOVA, all pair wise multiple comparison procedure (Tukey test). Data will be reported as mean±SEM.

## C/C(=N\OCCN1CCOCC1)C1=CC[C@H]2[C@@H]3CC=C4C[C@@H](O)CC[C@]4(C)[C@H]3CC[C@]12C [Compound 11c, 3β-Hydroxypregna-5,16-dien-20-one-O-(2-morpholin-4-yl-ethyl)-oxime]
Sucrose loaded rat
  % Antihyperglycemic activity SLM: 10.2%

## C/C(=N/OCC(O)CN1CCN(c2ccccc2)CC1)[C@H]1CC[C@H]2[C@@H]3CC=C4C[C@@H](O)CC[C@]4(C)[C@H]3CC[C@]12C (stereo partly drawn) [Compound 16c, 3β-Hydroxy-pregna-5-en-20-one-O-[2-hydroxy-3-(4-phenyl-piperazin-1-yl)-propyl]-oxime]
Sucrose loaded rat
  % Antihyperglycemic activity SLM: 17.8%

## CC(C)OC(=O)C(C)(C)Oc1ccc(C(=O)c2ccc(Cl)cc2)cc1 [Fenofibrate, reference compound]
[1]; 30 mg/kg oral
  enhancement of lipoprotein lipase: 21.1%
  enhancement of serum HDL-cholesterol: 9.8%
  lowering of LDL-cholesterol (LDL-C) level: 30.1%
  lowering of serum glycerol level: 22.4%
  lowering of serum triglycerides level (TG): 28.9%
[1]; 30 mg/kg p.o., 7 days
  Glycerol, change vs HFD control (in parentheses): (−22.4)* %
  HDL-C, change vs HFD control (in parentheses): (+9.80) %
  LDL-C, change vs HFD control (in parentheses): (−30.1)** %
  Lipoprotein lipase, change vs HFD control (in parentheses): (+21.1)* %
  TG, change vs HFD control (in parentheses): (−28.9)* %
[1]; 30 mg/kg p.o., 7 days, serum
  Chol: 277.8 ± 22.3 mg/dL
  HDL-C: 156.8 ± 12.8 mg/dL
  Lipoprotein lipase: 36.8 ± 3.60 U/L
  NEFA: 5.40 ± 0.30 mmol/L
  TG: 529.8 ± 30.7 mg/dL

## CC(=NO)[C@H]1CC[C@H]2[C@@H]3CC=C4C[C@@H](O)CC[C@]4(C)[C@H]3CC[C@]12C [Compound 10., 3β-hydroxy-pregna-5-en-20-one-oxime]
Sucrose loaded rat
  % Antihyperglycemic activity SLM: 13.9%

## C/C(=N\OCC(O)CNC(C)C)C1CCC2C3CC=C4CC(O)CCC4(C)C3CCC12C (stereo not drawn) [Compound 16b, 3β-Hydroxy-pregna-5-en-20-one-O-[2-hydroxy-3-iso-propylamino-Propyl)-oxime]
Sucrose loaded rat
  % Antihyperglycemic activity SLM: 13.6%
